Experimental data: US20250369032A1 (priority 2023, published 2025)
Where “and” joins values, the source holds several entries; their conditions need not be identical. Equal values may be shown once. Read-outs that look alike come from different tables or passages of the source.

How the values were obtained:
alkaline phosphatase [1] = molecular target: T1, alkaline phosphatase (Bos taurus, UniProt P19111); type: biochemical; set-up: purchased Sigma Aldrich, St. Louis, MO P0114 (original source); P7640 (second source, 'new AP' condition only)
T1 sequence (P19111 20-506): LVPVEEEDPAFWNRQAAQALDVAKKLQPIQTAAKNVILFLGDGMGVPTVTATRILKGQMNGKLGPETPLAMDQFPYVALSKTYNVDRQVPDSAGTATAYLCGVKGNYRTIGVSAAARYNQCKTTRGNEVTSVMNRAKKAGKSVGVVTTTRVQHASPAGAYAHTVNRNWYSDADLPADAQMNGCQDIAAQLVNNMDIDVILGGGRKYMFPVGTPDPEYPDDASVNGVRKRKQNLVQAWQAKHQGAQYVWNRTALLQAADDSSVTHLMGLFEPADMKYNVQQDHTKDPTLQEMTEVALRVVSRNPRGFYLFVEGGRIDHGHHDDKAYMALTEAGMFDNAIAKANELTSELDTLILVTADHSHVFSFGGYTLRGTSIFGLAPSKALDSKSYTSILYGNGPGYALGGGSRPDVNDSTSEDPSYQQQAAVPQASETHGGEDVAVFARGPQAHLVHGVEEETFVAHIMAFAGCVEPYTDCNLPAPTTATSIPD

skin = conditions: cited from earlier work
[2] = test system: endogenous skin phosphatase; type: biochemical, porcine; conditions: optical density compared to the naïve condition
Experimental: Our next studies involved applying the test substance (500 μL) directly to the epidermis side of previously frozen porcine skin (Spear Products, Coopersburg, PA) that is placed in a holder that only exposes the epidermis side for 30 minutes, adding phosphate buffered saline (PBS) with added sodium azide (metabolic inhibitor that ensure no viable tissue), then aliquoting into cuvettes to read at an optical density of 300 nm. […] So, at the end of the initial studies described above, almost out of frustration, we tried to probe for released phosphatase activity using p-Nitrophenyl phosphate disodium salt (PNPP; Sigma Aldrich, St. Louis, MO) substrate solution to detect any presence of phosphatase.
• 1. Thaw 2 pieces of frozen porcine skin • a. Punch out as many skin discs and mount in holders • 2. Label cuvettes (3 for each chemical)
• 1. Add 500 μL of test chemical to holder; incubate at room temperate for 30 minutes • 2. After 30 minutes, add 2 mL of PBS-Azide to both the holder containing the test chemical; forcefully pipette and re-pipette 10 times • 3. From the holder, aliquot 400 μL into 3 cuvettes; forcefully pipette and re-pipette 3 times before dispensing into cuvettes
Skin corrosion by GHS Category 1 dermal corrosive chemicals results in the disintegration of the epidermis into the dermis.

alkaline phosphatase [3] = molecular target: T1, alkaline phosphatase; type: biochemical; set-up: purchased Sigma Aldrich, St. Louis, MO P0114 (original source); P7640 (second source, 'new AP' condition only); conditions: original alkaline phosphatase 1:100 dilution
Source text: Our next study focused on an in vitro method of detecting the potential of dermal corrosives to inhibit nonspecific phosphatases that may be released from the skin. We decided to test pure […] instead of relying on endogenous skin phosphatase. Alkaline phosphatase (Sigma Aldrich, St. Louis, MO) was purchased and suspended to make the reaction reagent (10,000 units). […] We note that the ratio used was 0.1 g/ml or 10% chemical-which is far in excess of any pharmaceutical applications. We further note that pharmaceutical enzyme inhibition tests, studies an use involve highly specific active site binding and these assays are conducted at ratios of micrograms-femtograms per ml. These studies are done at these ranges because these are the realistic concentrations for drug applications and therapeutics. […] So when a 50 Kg human consumes the tables, the tissues will be exposed at a 5 mg/50 kg=0.1 mg/kg=0.0000001 g/ml.
Next two quantitative methods were evaluated: 1) using the discs parts from our OptiSafe™ test method and 2) directly into the 24-well plate.
• 1. Alkaline phosphatase reaction reagent • a. Take 1 vial of AP, add 1 mL of PBS, mix by pipette/re-pipette 10 times • b. To a 50 mL conical tube, add 1 mL of the AP solution prepared above and 40 mL of PBS • 2. Prepare two 24-well plates (1 with discs, 1 without discs) • 3. […] Aliquot 200 μL PNPP and PBS
• 1. Plate 1 (No Discs) • a. Add 1.25 mL from the prepared PBS-AP conical tube to each well (11 wells) • b. Add 100 μL of the test material to the well, mix with the same pipette tip, dispose and repeat for the rest of the test materials • c. Wrap the plate in saran wrap and place into the container • 2. Plate 2 (Discs) • a. Configure the 11 discs in the plate so the plate cover is stable • b. Add 1.25 mL from the prepared PBS-AP conical tube to each well (11 wells) • c. Add 100 μL of the test material to the center of the disc and repeat for the rest of the test materials • d. Put the plate cover on and place into the container • 3. […] Incubate for 1 hour
For the new study, the alkaline phosphatase was suspended in phosphate buffered saline (PBS) to make the reaction reagent. Then, 100 μL of the test chemical is added directly into the corresponding wells on a 24-well plate with 1.25 mL of alkaline phosphatase reaction reagent already aliquoted.
• 1. Alkaline phosphatase reaction reagent • a. Take 1 vial of AP, add 1 mL of PBS, mix by pipette/re-pipette 10 times • b. To a 50 mL conical tube, add 1 mL of the AP solution prepared above and 40 mL of PBS • 2. Prepare two 24-well plates • 3. […] Aliquot with 200 μL PNPP and PBS • 4. Prepare glass vials Repeat Procedure from Jan. […] 24-well plate • a. Add 1.25 mL from the prepared PBS-AP conical tube to each well (11 wells) • b. Add 100 μL of the test material to the well, mix with the same pipette tip, dispose and repeat for the rest of the test materials • c. Wrap the plate in saran wrap and place into the container • 2. […] To the prepared 96-well plate with 200 μL PNPP or PBS, add 20 μL from the 24-well plate • 4. Incubate for 1 hour • 5.
• 1. 24-well plate • a. Add 1.25 mL from the prepared PBS-AP conical tube to each well (11 wells) • b. Add 100 μL of the test material to the well, mix with the same pipette tip, dispose and repeat for the rest of the test materials • c. After 10 minutes, mix each well • 2.

porcine skin = conditions: R 1 and 2
Experimental: Our initial studies involved using fresh and frozen porcine skin “buttons”. These buttons were punched out of porcine skin (Spear Products, Cooopersburg, PA) using a […] biopsy punch tool. Three different kinds of skin buttons were prepared from fresh porcine skin, frozen porcine skin, and frozen porcine skin with the fatty layer removed. […] The next day, the tubes were taken out and vortexed and 500 μL of the solution was aliquoted into cuvettes to read at three different optical density wavelengths (OD190, OD290, OD300) to evaluate the best response.
• 1. Thaw 2 pieces of frozen porcine skin • 2. Punch out buttons: 24 buttons in each tube filled with 40 mL PBS-Azide
• 1. Plate layout for dosing:
• 1. Dose each tissue with 140 μL of test chemical • 2.
• 1. Take out of incubator and vortex pulse 3× • 2. Aliquot 500 μL to cuvette and read results at OD190, OD290, and OD300
There were three readings done at an optical density of 190, 290, and 300 nm to evaluate the best response. […] To address the variable exposure conditions, our next studies involved placing a larger porcine skin section into a holder that exposes only the epidermis side with no potential for test chemical exposure from the backside or through the sides.

[4] = 1:100, 20 μL into 180 μL, 0.5 mL microcentrifuge tubes, 4 hours RT, PNPP 60 min, 405 nm
[5] = average of R1-R3, 1:100, 20 μL into 180 μL, 4 hours RT, PNPP 60 min, 405 nm
[6] = skin, chemical lists of the protocols
[7] = fresh porcine skin, 140 μL, 18 hours at 37° C. in PBS-Azide
[8] = frozen porcine skin with fat layer removed

Compound	A1-Results R1 (alkaline phosphatase [1]; [4])	A1-Results R3 (alkaline phosphatase [1]; [4])	A1-Results AVG (alkaline phosphatase [1]; [5])	A1-Results AVG (alkaline phosphatase [1])	A1-Results R1 (alkaline phosphatase [1])	A1-Results R3 (alkaline phosphatase [1])	other results
CSc1ccc(C=O)cc1	3.354	3.238	3.344	–	–	–	–
CC/C=C\CC1=C(C)CCC1=O	–	–	–	3.502	3.502	3.502	–
CC(C)=CCC/C(C)=C/CO	3.406	3.502	3.470	–	–	–	in vivo GHS (skin; [6]): Cat. 2 (Category 2 (irritation; mean score of ≥2.3 and ≤4.0 for erythema/eschar or for oedema in at least 2 of 3 tested animals at 24, 48, and 72 hours or inflammation that persists to the end of 14 days))
CCCCCBr [1-Bromopentane]	3.428	3.056	3.261	–	–	–	in vivo GHS (skin; [6]): Cat. 2 (Category 2 (irritation; mean score of ≥2.3 and ≤4.0 for erythema/eschar or for oedema in at least 2 of 3 tested animals at 24, 48, and 72 hours or inflammation that persists to the end of 14 days))
CCCCCCCCCCO [1-Decanol]	–	–	–	3.449	3.502	3.380	–
CC(C)(O)CCc1ccccc1 [2-Methyl-4-phenyl-2-butanol]	–	–	–	–	–	–	percent of phosphatase measured (first reading) [2]: 98.6%; percent of phosphatase measured (second reading) [2]: 100.0%; percent of phosphatase measured, average [2]: 99.3%; Corrosive (skin; Table 2): No
CC(C)(C)c1ccccc1O [2-tert-Butylphenol]	0.437	0.607	0.524	–	–	–	in vivo GHS (skin; rabbit, in vivo): Cat. 1B/1C; prediction based on OD405 values (FIG. 6D) (alkaline phosphatase [3]): correctly predicted; prediction based on OD405 values (FIG. 6B) (alkaline phosphatase [1]; original alkaline phosphatase 1:1, 18 hours room temperature): incorrectly predicted
BrCCc1ccccc1 [(2-Bromoethyl)benzene]	–	–	–	–	–	–	percent of phosphatase measured (first reading) [2]: 100.0%; percent of phosphatase measured (second reading) [2]: 100.0%; percent of phosphatase measured, average [2]: 100.0%; Corrosive (skin; rabbit, in vivo): No
CC(=O)OCc1ccccc1 [Benzyl Acetate]	3.401	3.502	3.463	–	–	–	–
O=C(OCc1ccccc1)c1ccccc1O [Benzyl Salicylate]	3.502	3.445	3.464	–	–	–	–
CC(C=O)Cc1ccc(C(C)C)cc1 (stereo not shown) [Cyclamen aldehyde]	3.405	3.502	3.470	–	–	–	percent of phosphatase measured (first reading) [2]: 100.0%; percent of phosphatase measured (second reading) [2]: 100.0%; percent of phosphatase measured, average [2]: 100.0%; Corrosive (skin; Table 2): No; in vivo GHS (skin; skin, Tables 1A-1C and 2): Cat. 2; in vivo GHS (skin; [6]): Cat. 2 (Category 2 (irritation; mean score of ≥2.3 and ≤4.0 for erythema/eschar or for oedema in at least 2 of 3 tested animals at 24, 48, and 72 hours or inflammation that persists to the end of 14 days)); OD190 (porcine skin; [7]): 0.694 and 0.716; OD290 (porcine skin; [7]): 0.290 and 0.477; OD300 (porcine skin; [7]): 0.274 and 0.447; OD190 (porcine skin; [8]): 0.222 and 0.214; OD290 (porcine skin; [8]): 0.195 and 0.153; OD300 (porcine skin; [8]): 0.142 and 0.119; OD290 (porcine skin; frozen porcine skin): 1.023 and 0.955; OD300 (porcine skin; frozen porcine skin): 0.901 and 0.852
CCCCCCC=O [Heptanal]	–	–	–	3.196	3.409	3.049	percent of phosphatase measured (first reading) [2]: 100.0%; percent of phosphatase measured (second reading) [2]: 94.4%; percent of phosphatase measured, average [2]: 97.2%; Corrosive (skin; rabbit, in vivo): No; in vivo GHS (skin; rabbit, in vivo): Cat. 2
CC(CC=O)CCCC(C)(C)O (stereo not shown) [Hydroxycitronellal]	–	–	–	3.356	3.412	3.154	–
CC(C)O [Isopropanol]	–	–	–	3.423	3.484	3.305	–
CCCCCCCCCCCCCC(=O)OC(C)C [Isopropyl Myristate]	–	–	–	3.451	3.373	3.484	–
OCCc1ccccc1 [Phenylethyl alcohol]	–	–	–	3.469	3.502	3.403	–
OCCOCCOCCO [Triethylene glycol]	–	–	–	–	–	–	percent of phosphatase measured (first reading) [2]: 29.5%; percent of phosphatase measured (second reading) [2]: 28.2%; percent of phosphatase measured, average [2]: 28.9%; Corrosive (skin; rabbit, in vivo): No
CC1=CCC(C(C)(C)O)CC1 (stereo not drawn) [alpha-Terpineol]	3.502	3.502	3.502	–	–	–	–
CCCSSCCC [di-n-Propyl disulfide]	3.467	3.395	3.445	–	–	–	percent of phosphatase measured (first reading) [2]: 68.1%; percent of phosphatase measured (second reading) [2]: 71.6%; percent of phosphatase measured, average [2]: 69.9%; Corrosive (skin; Table 2): No; in vivo GHS (skin; skin, Tables 1A-1C and 2): Cat. 2; in vivo GHS (skin; [6]): Cat. 2 (Category 2 (irritation; mean score of ≥2.3 and ≤4.0 for erythema/eschar or for oedema in at least 2 of 3 tested animals at 24, 48, and 72 hours or inflammation that persists to the end of 14 days))
CCCCCCCN [n-Heptylamine]	–	–	–	2.557	2.141	2.862	in vivo GHS (skin; [6]): Cat. 1B/1C; OD405 readings (FIG. 6D) (alkaline phosphatase [1]): 3.244 and 3.057 and 3.152; prediction based on OD405 values (FIG. 6B) (alkaline phosphatase [1]): incorrectly predicted
C=C(C)[C@@H]1CC=C(CO)CC1 [p-Metha-1,8-dien-7-ol]	–	–	–	–	–	–	in vivo GHS (skin; [6]): Cat. 2 (Category 2 (irritation; mean score of ≥2.3 and ≤4.0 for erythema/eschar or for oedema in at least 2 of 3 tested animals at 24, 48, and 72 hours or inflammation that persists to the end of 14 days))
